Columns and labels:
[1] = target: T1, IDO1 enzyme in Hela cells (Homo sapiens, UniProt P14902); assay: hIDO1 cytological activity assay (kynurenine in Hela cells by LC-MS); format: cell-based; conditions: IDO1 induced with 100 ng/mL recombinant human γ-interferon, 20 h, read-out: hIDO1 Cytological active IC50
T1 construct: recombinant human γ-interferon was added to a final concentration of 100 ng/mL to induce IDO1 expression; endogenous in cells; host or cells: Hela cells
Protocol: Experimental Example 2: hIDO1 Cytological Activity Assay
The change of kynurenine in Hela cells was detected by the LC-MS method, and the IC50 value of the compound was used as an index to evaluate the inhibitory effect of the compound of formula I on IDO1 enzyme.
The culture medium, trypsin and DPBS were preheated in a 37° C. water bath. The culture medium for cell culture was sucked out and washed with 10 mL of DPBS; the preheated trypsin was added into the culture flask, and the flask was rotated to allow the trypsin to uniformly cover it, and then placed in a 37° C., 5% CO2 incubator to digest for 1-2 min; in each T150, cells were dispersed with 10-15 mL of the culture medium, centrifuged at 800 rpm for 5 min, and then resuspended with 10 mL of medium; 1 mL of cell suspension was pipetted and cells were counted with Vi-cell; Hela cells were diluted with the culture medium to 5×10^5/mL, 80 μL of the solution was added to a 96-cell plate, and cultured at 37° C. for 5-6 h in a 5% CO2 incubator.
The compound was diluted to 1 mM with DMSO, and then diluted 3-fold in duplicate wells, with 9 gradients. […]
10 μL of recombinant human γ-interferon was added to a final concentration of 100 ng/mL to induce IDO1 expression. […] The content of kynurenine was detected by LC-MS. […]

[2] = target: T2, recombinant human IDO1 enzyme (Homo sapiens, UniProt P14902); assay: In vitro hIDO1 enzyme activity test (NFK Green fluorescence); format: biochemical; conditions: recombinant human IDO1, L-tryptophan substrate, pH 6.5, NFK Green readout
T2 construct: purchased NTRC NTRC-hIDO-10K
Protocol: Experimental Example 1: In Vitro hIDO1 Enzyme Activity Test
The change of NFK production was detected by using the NFK Green™ fluorescent molecule, which is the metabolite of the IDO1 enzyme, and the IC50 value of the compound was used as an index, to evaluate the inhibitory effect of the compound of formula I on the recombinant human IDO1 enzyme.
The compound of formula I was diluted to 1 mM with DMSO, and then diluted 3-fold in duplicate wells, with 10 gradients. 48 μL of 50 mM phosphate buffer (pH 6.5) was transferred and added to the compound plate via Bravo automated liquid handling platform. 2 μL of the diluted solution of the compound in DMSO was then added thereto and mixed, followed by transferring 10 μL thereof to an enzyme reaction plate.
The IDO1 enzyme was diluted to 20 nM in the reaction buffer (50 mM phosphate buffer (pH 6.5), 0.1% Tween-20, 2% glycerol, 20 mM ascorbic acid, 20 μg/mL catalase and 20 μM methylene blue), 20 μL of which was transferred to an enzyme reaction plate and incubated at 23° C. for 30 min. The reaction was started by adding 10 μL of 400 μM L-tryptophan substrate and incubated at 23° C. for 90 min. 10 μL of NFK Green™ fluorescent dye was added thereto, and the plate was sealed with the microplate sealing film, incubated at 37° C. for 4 h, and then read on Envision Multimode Microplate Reader (Ex 400 nm/Em 510 nm). […]

T1 sequence (P14902 whole entry): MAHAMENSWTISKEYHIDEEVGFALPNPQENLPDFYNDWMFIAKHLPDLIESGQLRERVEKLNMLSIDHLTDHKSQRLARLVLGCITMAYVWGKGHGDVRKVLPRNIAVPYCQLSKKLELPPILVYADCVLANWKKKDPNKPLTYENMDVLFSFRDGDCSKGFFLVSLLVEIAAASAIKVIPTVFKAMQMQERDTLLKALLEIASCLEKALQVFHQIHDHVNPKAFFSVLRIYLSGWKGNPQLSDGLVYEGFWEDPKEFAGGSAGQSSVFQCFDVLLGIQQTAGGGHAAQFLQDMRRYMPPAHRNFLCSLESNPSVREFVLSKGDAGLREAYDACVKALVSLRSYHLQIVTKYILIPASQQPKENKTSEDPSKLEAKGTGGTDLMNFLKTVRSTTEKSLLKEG
T2 sequence (P14902 whole entry): as above

With `FC1(F)CCC([C@H]2c3sccc3-c3cncn32)CC1` [Compound of formula I, (S)-8-(4,4-difluorocyclohexyl)-8H-thieno[3,4]pyrrolo[1,5-a]imidazole] as the molecule, how does the IC50 [1] read?
The IC50 was 74.9 nM.

What about the IC50 [2] of the same molecule?
Its IC50 is 48 nM.
